Results from ChEMBL document CHEMBL4311942, “Design of Trp-Rich Dodecapeptides with Broad-Spectrum Antimicrobial Potency and Membrane-Disruptive Mechanism” (J Med Chem, 2019).
In brackets after ≈: the same amount, converted by molar mass. Activity calls are given as the source filed them. The calls are words filed in the database; no cut-off is given here. Where a SMILES comes first, the peptide text is derived from it.

How the values were obtained:
Escherichia coli [1] = test: Induction of cell membrane disruption in Escherichia coli ATCC 25922 assessed as propidium iodide-positive cells at 2 times MIC after 30 mins by flow cytometric analysis (reference value: 0.8%)
Escherichia coli [2] = test: Antibacterial activity against Escherichia coli ATCC 25922 incubated for 2 hrs in presence of sodium phosphate buffer at pH 4 by broth microdilution method; type: functional; settings: ATCC 25922, 2 h
Escherichia coli [3] = test: Disruption of Escherichia coli ATCC 25922 cell membrane assessed as induction of arachnoid damage at 2 times MIC after 60 mins by field emission scanning electron microscopy; type: organism-based
Escherichia coli [4] = test: Antibacterial activity against Escherichia coli ATCC 25922 in presence of NaCl by broth microdilution method; type: functional
Escherichia coli [5] = test: Bactericidal activity against Escherichia coli ATCC 25922 at 4 times MIC after 60 mins by time kill assay relative to control; type: functional
[6] = Cytotoxicity against mouse RAW264.7 cells assessed as cell survival at <= 32 uM after 24 hrs by MTT assay relative to control; type: cell-based; settings: RAW264.7 cells, up to 32 µM, read-out: Activity
Acinetobacter baumannii = test: Antibacterial activity against Acinetobacter baumannii AB1901 clinical isolate incubated for 18 to 24 hrs by broth microdilution method; type: functional
Staphylococcus aureus [7] = test: Antibacterial activity against Staphylococcus aureus 11011 incubated for 18 to 24 hrs by broth microdilution method; type: functional
Lipopolysaccharide (LPS) [8] = test: Displacement of BODIPY-TR-cadaverine from Escherichia coli O111:B4 LPS by spectrofluorophotometric method
Staphylococcus aureus [9] = test: Induction of cell membrane disruption in Staphylococcus aureus ATCC 29213 assessed as leakage of cellular content at 1 to 2 times MIC after 60 mins by transmission electron microscopy; type: organism-based
Staphylococcus aureus [10] = test: Antibacterial activity against Staphylococcus aureus ATCC 29213 incubated for 18 to 24 hrs using FITC-labelled peptide by broth microdilution method; type: functional, organism-based
Escherichia coli [11] = test: Inhibition of swimming motility of Escherichia coli ATCC 25922 after 16 hrs; type: functional, organism-based
Escherichia coli [12] = test: Induction of outer membrane permeabilization in Escherichia coli UB1005 assessed as increase in NPN uptake at 4 uM by spectrofluorophotometric assay relative to control
Staphylococcus aureus [13] = test: Antibacterial activity against Staphylococcus aureus ATCC 29213 in presence of 50% serum by broth microdilution method; type: functional
Escherichia coli [14] = test: Antibacterial activity against Escherichia coli ATCC 25922 in presence of NaBH4 by broth microdilution method; type: functional
Staphylococcus aureus [15] = test: Antibacterial activity against Staphylococcus aureus ATCC 29213 incubated for 2 hrs in presence of sodium phosphate buffer at pH 2 by broth microdilution method; type: functional; settings: ATCC 29213, 2 h
Salmonella typhimurium = test: Antibacterial activity against Salmonella enterica serovar typhimurium C77-31 incubated for 18 to 24 hrs by broth microdilution method; type: functional, Salmonella enterica subsp. enterica serovar Typhimurium
Lipopolysaccharide (LPS) [16] = test: Displacement of BODIPY-TR-cadaverine from Escherichia coli O111:B4 LPS assessed as increase in fluorescence intensity at 64 uM by spectrofluorophotometric method relative to control
Staphylococcus aureus [17] = test: Antibacterial activity against Staphylococcus aureus ATCC 29213 in presence of 25% serum by broth microdilution method; type: functional
Escherichia coli [18] = test: Antibacterial activity against Escherichia coli ATCC 25922 in presence of 12.5% serum by broth microdilution method; type: functional
Escherichia coli [19] = test: Induction of cell membrane disruption in Escherichia coli ATCC 25922 assessed as appearance of partial membrane corrugation at 1 times MIC after 60 mins by field emission scanning electron microscopy; type: organism-based
Staphylococcus aureus [20] = test: Bactericidal activity against Staphylococcus aureus ATCC 29213 at 2 times MIC after 60 mins by time kill assay; type: functional, organism-based
Staphylococcus aureus [21] = test: Antibacterial activity against Staphylococcus aureus ATCC 29213 in presence of 12.5% serum by broth microdilution method; type: functional
Staphylococcus aureus [22] = test: Antibacterial activity against Staphylococcus aureus ATCC 29213 in presence of KCl by broth microdilution method; type: functional
Escherichia coli [23] = test: Bactericidal activity against Escherichia coli ATCC 25922 assessed as reduction in bacterial growth at 4 times MIC after 30 mins by time kill assay relative to control; type: functional
Staphylococcus aureus [24] = test: Antibacterial activity against Staphylococcus aureus ATCC 29213 in presence of NaBH4 by broth microdilution method; type: functional
Escherichia coli [25] = test: Antibacterial activity against Escherichia coli ATCC 25922 incubated for 2 hrs in presence of sodium phosphate buffer at pH 10 by broth microdilution method; type: functional; settings: ATCC 25922, 2 h
Escherichia coli [26] = test: Antibacterial activity against Escherichia coli ATCC 25922 in presence of H202 by broth microdilution method; type: functional
Staphylococcus aureus [27] = test: Antibacterial activity against Staphylococcus aureus ATCC 29213 in presence of NaCl by broth microdilution method; type: functional
Escherichia coli [28] = test: Antibacterial activity against ciprofloxacin-resistant Escherichia coli ATCC 25922 incubated for 18 to 24 hrs; type: functional
Staphylococcus aureus [29] = test: Antibacterial activity against Staphylococcus aureus ATCC 29213 incubated for 18 to 24 hrs by broth microdilution method; type: functional
Staphylococcus aureus [30] = test: Antibacterial activity against Staphylococcus aureus ATCC 29213 in presence of H202 by broth microdilution method; type: functional
Staphylococcus aureus [31] = test: Antibacterial activity against Staphylococcus aureus ATCC 25923 incubated for 18 to 24 hrs by broth microdilution method; type: functional
Staphylococcus aureus [32] = test: Antibacterial activity against Staphylococcus aureus ATCC 29213 in presence of ZnCl2 by broth microdilution method; type: functional
Escherichia coli [33] = test: Antibacterial activity against Escherichia coli ATCC 25922 in presence of KCl by broth microdilution method; type: functional
Staphylococcus aureus [34] = test: Antibacterial activity against Staphylococcus aureus ATCC 29213 in presence of CaCl2 by broth microdilution method; type: functional
Escherichia coli [35] = test: Antibacterial activity against Escherichia coli 20411 clinical isolate incubated for 18 to 24 hrs by broth microdilution method; type: functional
Escherichia coli [36] = test: Antibacterial activity against Escherichia coli ATCC 25922 incubated for 2 hrs in presence of sodium phosphate buffer at pH 12 by broth microdilution method; type: functional; settings: ATCC 25922, 2 h
Escherichia coli [37] = test: Antibacterial activity against Escherichia coli UB1005 incubated for 18 to 24 hrs by broth microdilution method; type: functional
Escherichia coli [38] = test: Bactericidal activity against Escherichia coli ATCC 25922 at 1 times MIC after 120 mins by time kill assay; type: functional, organism-based
Escherichia coli [39] = test: Antibacterial activity against Escherichia coli ATCC 25922 incubated for 18 to 24 hrs by broth microdilution method; type: functional

## CC(C)C[C@H](NC(=O)[C@H](CCCNC(=N)N)NC(=O)[C@H](Cc1c[nH]c2ccccc12)NC(=O)[C@H](CCCNC(=N)N)NC(=O)[C@@H](NC(=O)[C@H](CCCCN)NC(=O)[C@H](Cc1c[nH]c2ccccc12)NC(=O)[C@H](CCCNC(=N)N)NC(=O)[C@H](CC(C)C)NC(=O)[C@H](CCCNC(=N)N)NC(=O)[C@@H](N)Cc1c[nH]c2ccccc12)[C@@H](C)O)C(=O)N[C@@H](CCCCN)C(N)=O (H-WRLRWKTRWRLK-NH2)
Escherichia coli [1]
  Activity: 91.7%
Escherichia coli [2]
  MIC: 2 µM
Escherichia coli [3]
  Activity: Active
Escherichia coli [4]
  MIC: 4 µM
Escherichia coli [5]
  Activity: 100%
[6]
  viability at 24 h: ≥ 70%
Acinetobacter baumannii
  MIC: 4 µM (≈ 7.14 µg/mL)
Staphylococcus aureus [7]
  MIC: 2 µM (≈ 3.57 µg/mL)
Lipopolysaccharide (LPS) [8]
  Activity: Dose-dependent effect
Staphylococcus aureus [9]
  Activity: Active
Staphylococcus aureus [10]
  Activity: Active
Escherichia coli [11]
  inhibition: Dose-dependent effect
Escherichia coli [12]
  Activity: 90%
Staphylococcus aureus [13]
  MIC: 8 µM
Escherichia coli [14]
  MIC: 4 µM
Staphylococcus aureus [15]
  MIC: 4 µM
Salmonella typhimurium
  MIC: 2 µM (≈ 3.57 µg/mL)
Lipopolysaccharide (LPS) [16]
  Activity: 92%
Staphylococcus aureus [17]
  MIC: 8 µM
Escherichia coli [18]
  MIC: 4 µM
Escherichia coli [19]
  Activity: Active
Staphylococcus aureus [20]
  Activity: Active
Staphylococcus aureus [21]
  MIC: 4 µM
Staphylococcus aureus [22]
  MIC: 2 µM
Escherichia coli [23]
  log(activity): 1
Staphylococcus aureus [24]
  MIC: 4 µM
Escherichia coli [25]
  MIC: 4 µM
Escherichia coli [26]
  MIC: 2 µM
Staphylococcus aureus [27]
  MIC: 8 µM
Escherichia coli [28]
  MIC: 4 µM (≈ 7.14 µg/mL)
Staphylococcus aureus [29]
  MIC: 4 µM (≈ 7.14 µg/mL)
Staphylococcus aureus [30]
  MIC: 4 µM
Staphylococcus aureus [31]
  MIC: 2 µM (≈ 3.57 µg/mL)
Staphylococcus aureus [32]
  MIC: 4 µM
Escherichia coli [33]
  MIC: 2 µM
Staphylococcus aureus [34]
  MIC: 4 µM
Escherichia coli [35]
  MIC: 2 µM (≈ 3.57 µg/mL)
Escherichia coli [36]
  MIC: 2 µM
Escherichia coli [37]
  MIC: 2 µM (≈ 3.57 µg/mL)
Escherichia coli [38]
  Activity: inactive
Escherichia coli [39]
  MIC: 4 µM (≈ 7.14 µg/mL)
